According to patent publication US9421237B2, “Tripeptide boronic acid or boronic ester, preparative method and use thereof” (PEKING UNIVERSITY, priority 2009, dated 2016):

Tests used:
[1] = molecular target: T1, 20S proteasome extracted from rat liver, chymotryptic-like (CT-L) activity (Rattus norvegicus, UniProt P18421+P28075); assay: Proteasome inhibition, chymotryptic-like (CT-L) activity, fluorescent peptide Suc-leu-leu-Val-Tyr-AMC; assay type: biochemical; details: rat liver 20S proteasome, 37° C., 1 h
T1 construct: 20S proteasome extracted from rat liver; from tissue; host or cells: rat liver
Procedure: (§1) The activities of the proteasome were assayed using fluorescent peptides: Suc-leu-leu-Val-Tyr-AMC (Suc represents succinyl, and AMC represents 7-amino-4-methylcoumarin, purchased from SIGMA) for determining chymotryptic-like (CT-L) activity; Z-Ala-Arg-Arg-AMC (Z represents benzyloxycarbonyl, purchased from Calbiochem) for determining trypsin-like (TL) activity; and Z-leu-leu-Glu-βNA (βNA represents β-naphtylamide, purchased from SIGMA) for determining peptidyl-glutamyl-peptide-hydrolyzing (PGPH) enzyme activity.
(§2) Method for the aforesaid activity assays is as follows: 1 μg of 20S proteasome extracted from rat liver was incubated with a 100 μL solution containing various concentrations of compounds, 50 μM fluorescent peptides and 20 mM Tris-HCl at 37° C. for 1 h, respectively. The fluorescence released from AMC and RNA reagents was measured by a spectrofluorimeter Fluostar OPTIMA and BMG Germany at excitation/emission wavelengths of 380/440 nm and 335/410 nm, respectively. 0.1% DMSO was used as a solvent control. Compared with the fluorescence of solvent control, an inhibition rate was calculated.

[2] = molecular target: T2, 20S proteasome extracted from rat liver, trypsin-like (TL) activity (Rattus norvegicus, UniProt P40112+Q9JHW0); assay: Proteasome inhibition, trypsin-like (TL) activity, fluorescent peptide Z-Ala-Arg-Arg-AMC; assay type: biochemical; details: rat liver 20S proteasome, 37° C., 1 h; read-out: T-L (IC50)
T2 construct: 20S proteasome extracted from rat liver; from tissue; host or cells: rat liver
Procedure: as §1
as §2, with “calculated. Said assays used anticancer drug bortezomib (leukemia drug), namely PS341 as compound for positive control.” for “calculated.”

[3] = molecular target: T3, 20S proteasome extracted from rat liver, peptidyl-glutamyl-peptide-hydrolyzing (PGPH) enzyme activity (Rattus norvegicus, UniProt P28073+Q9JHW0); assay: Proteasome inhibition, PGPH activity, fluorescent peptide Z-leu-leu-Glu-βNA; assay type: biochemical; details: rat liver 20S proteasome, 37° C., 1 h
T3 construct: 20S proteasome extracted from rat liver; from tissue; host or cells: rat liver
Procedure: as §1
as §2, with “calculated. Said assays used anticancer drug bortezomib (leukemia drug), namely PS341 as compound for positive control.” for “calculated.”

[4] = system: HL-60 human leukemia cell; assay: Preliminary anti-tumor screening in vitro, MTT method; assay type: cell-based; set-up: key to Test results: +++: inhibition rates at three doses are greater than 50%; ++: inhibition rates at two doses are greater than 50%; +: inhibition rate at one dose is greater than 50%; details: HL-60, MTT; for Test results: number of doses with inhibition > 50%; for inhibition at 0.05 µM / inhibition at 0.5 µM / inhibition at 5 µM: Homo sapiens, read-out: Inhibition rate %
Procedure: (§3) The test methods used in this test example is the routine method for anti-tumor activities test in pharmaceutical area, for example, referring to the following reference: (J. Immunol Method, 1983, 65, 55).
(§4) Test models: A: MTT method (HL-60 human leukemia); B: SRB method (BGC-823 human gastric cancer); C: SRB method (Bel-7402 human hepatocarcinoma); D: SRB method (KB human nasopharyngeal carcinoma).
(§5) The aforesaid tests were carried out with the compounds of Examples 1-26 in the present invention, test results are shown in Tables 2-5.

[5] = system: BGC-823 human gastric cancer cell; assay: Preliminary anti-tumor screening in vitro, SRB method; assay type: cell-based; set-up: key to Test results: +++: inhibition rates at three doses are greater than 50%; ++: inhibition rates at two doses are greater than 50%; +: inhibition rate at one dose is greater than 50%; details: BGC-823, SRB; for Test results: number of doses with inhibition > 50%; for inhibition at 0.05 µM / inhibition at 0.5 µM / inhibition at 5 µM: Homo sapiens, read-out: Inhibition rate %
Procedure: as §3, §4, §5

[6] = system: Bel-7402 human hepatocarcinoma cell; assay: as above; assay type: cell-based; set-up: key to Test results: +++: inhibition rates at three doses are greater than 50%; ++: inhibition rates at two doses are greater than 50%; +: inhibition rate at one dose is greater than 50%; details: Bel-7402, SRB; for Test results: number of doses with inhibition > 50%; for inhibition at 0.05 µM / inhibition at 0.5 µM / inhibition at 5 µM: Homo sapiens, read-out: Inhibition rate %
Procedure: as §3, §4, §5

[7] = system: KB human nasopharyngeal carcinoma cell; assay: as above; assay type: cell-based; set-up: key to Test results: +++: inhibition rates at three doses are greater than 50%; ++: inhibition rates at two doses are greater than 50%; +: inhibition rate at one dose is greater than 50%; details: for inhibition at 0.05 µM / inhibition at 0.5 µM / inhibition at 5 µM: Homo sapiens, read-out: Inhibition rate %; for Test results: number of doses with inhibition > 50%
Procedure: as §3, §4, §5

[8] = system: BGC-823 (human gastric carcinoma cell strain); assay: In vitro anti-tumor activity (IC50), standard MTT method; assay type: cell-based; details: 72 h, average of three determinations
Procedure: (§6) HL-60, BXPC-3 and U266 were obtained from the American Type Culture Collection (Manassas, Va.), and BGC-823 (human gastric carcinoma cell strain) was obtained from China Pharmaceutical University.
(§7) Test methods: HL-60 cells were cultured in IMDM medium containing 20% fetal bovine serum at 37° C. in 5% CO2; BGC-823 cells and BXPC-3 cells were cultured in RPMI1640 medium containing 10% fetal bovine serum at 37° C. in 5% CO2; U266 cells were cultured in RPMI1640 medium containing 15% fetal bovine serum at 37° C. in 5% CO2.
(§8) The cell growth was measured by the standard MTT method. A dispersions (150 μL, containing 3000 cells) medium was added into each well of a 96-well plate and allowed to grow, after 24 h, ten kinds of medium (50 μL) containing different concentrations of drugs were added into the corresponding wells, and continued to incubate for 72 h. Then a solution containing 5 mg/ml MTT (20 μL) was added into each well and incubated for another 4 h at 37° C. The plate was then centrifugated at 1000 rpm at 4° C. for 5 min, and the medium in upper layer was carefully discarded. The precipitates were dissolved in 100 μL of DMSO, and absorbance was read with an Infinite M200 (Tecan, Austria) microplate reader at 540 nm.
(§9) The result was expressed as IC50 value, which is the average value of three independent determinations.

[9] = system: BXPC-3 (human pancreatic cancer cell strain); assay: as above; assay type: cell-based; details: 72 h, average of three determinations
Procedure: as §6, §7, §8, §9

[10] = system: HL-60 (promyelocytic leukemia cell strain); assay: as above; assay type: cell-based; details: Homo sapiens, 72 h, average of three determinations
Procedure: as §6, §7, §8, §9

[11] = system: U266 (multiple myeloma cell strain); assay: as above; assay type: cell-based; details: Homo sapiens, U-266, 72 h, average of three determinations
Procedure: as §6, §7, §8, §9

Row | IC50 [1] [nM] | IC50 [2] [nM] | IC50 [8] [nM] | IC50 [9] [nM] | SMILES | Test results [4] | inhibition at 0.05 µM [4] [%] | inhibition at 0.5 µM [4] [%] | inhibition at 5 µM [4] [%] | Test results [5] | inhibition at 0.05 µM [5] [%] | inhibition at 0.5 µM [5] [%] | inhibition at 5 µM [5] [%] | Test results [6] | inhibition at 0.05 µM [6] [%] | inhibition at 0.5 µM [6] [%] | inhibition at 5 µM [6] [%] | inhibition at 0.05 µM [7] [%] | inhibition at 0.5 µM [7] [%] | inhibition at 5 µM [7] [%] | Test results [7] | other results
1 | 0.263 ± 0.081 | > 20 | 2460 | 257 | CC(C)C[C@H](NC(=O)[C@H](Cc1ccccc1)NC(=O)[C@H](Cc1ccc(O)cc1)NC(=O)c1cnccn1)B(O)O [Compound 6d, N-pyrazineformyl-L-tyrosyl-L-phenylalanyl-L-leucine Boronic Acid] | + | -21.1 | -5.04 | 87.9 | + | 4.33 | 46.7 | 97.5 | + | 1.7 | 8.79 | 90 | 3.23 | 17.3 | 96.2 | + | IC50 [3]: 2.5 ± 1.49 nM; IC50 [10]: 445 nM; IC50 [11]: 66.2 nM; melting point: 219 to 221 °C
2 | 0.417 ± 0.07 | > 20 | 2810 | 31.8 | CC(C)C[C@H](NC(=O)[C@H](Cc1ccccc1)NC(=O)[C@H](Cc1ccc2ccccc2c1)NC(=O)c1cnccn1)B(O)O [Compound 6b, N-pyrazineformyl-L-naphthylalanyl-L-phenylalanyl-L-leucine Boronic Acid] | ++ | 3.58 | 87.3 | 88.9 | +++ | 56.4 | 93.7 | 96.7 | + | 22.9 | 56.1 | 91.6 | 23.3 | 91.5 | 96.6 | ++ | IC50 [3]: 4.43 ± 1.41 nM; IC50 [10]: 10 nM; IC50 [11]: 53 nM; melting point: 134 to 135 °C
3 | 0.335 ± 0.078 | > 20 | 2450 | 33.3 | CC(C)C[C@H](NC(=O)[C@H](Cc1ccc2ccccc2c1)NC(=O)[C@H](Cc1ccc2ccccc2c1)NC(=O)c1cnccn1)B(O)O [Compound 6h, N-pyrazineformyl-L-naphthylalanyl-L-naphthylalanyl-L-leucine Boronic Acid] | ++ | 13.6 | 85.7 | 88.3 | ++ | 44.9 | 88.1 | 97.6 | + | 6.61 | 49.8 | 94.8 | 14.2 | 91.8 | 97.4 | ++ | IC50 [10]: 19.6 nM; IC50 [11]: 195 nM; melting point: 145 to 146 °C
4 | 0.395 ± 0.035 | > 20 | 5140 | 445 | CC(C)C[C@H](NC(=O)[C@H](Cc1ccc(O)cc1)NC(=O)[C@H](Cc1ccccc1)NC(=O)c1cnccn1)B(O)O [Compound 6c, N-pyrazineformyl-L-phenylalanyl-L-tyrosyl-L-leucine Boronic Acid] | + | -16.1 | -8.48 | 65 | + | 2.64 | 25.1 | 97.7 | + | -2.64 | -4.84 | 71.2 | -13.6 | -5.16 | 95.4 | + | IC50 [3]: 4.01 ± 1.47 nM; IC50 [10]: 552 nM; IC50 [11]: 250 nM; melting point: 298 to 300 °C
